Values of other authors in patent US11883460B2, “Antibiotic compositions for treating bacterial infections” (AGENCY FOR SCIENCE, TECHNOLOGY AND RESEARCH, priority 2014, dated 2024).

Details: compared with colistimethate sodium

Stability in human plasma: more stable than colistimethate sodium
Substance: Colistin sulfate
